Measurements reported in patent publication US12569468B2, “Use of palovarotene in treatment against HBV virus” (YANG SHENG TANG COMPANY, LTD., priority 2020, dated 2026).

Test system: HBV
Assay: Therapeutic effect on HepG2-hNTCP 2B1 infected by HBV (drug from day 6 after infection)
Type: cell-based, hepatitis B virus
Settings: drug treatment from 6 days after HBV infection to day 12, Palovarotene at high concentrations (p<0.05), ETV 1 μM, vs blank group
Procedure: This experiment was carried out in a 24-well culture plate. […] About 1.5×10^5 HepG2-hNTCP 2B1 cells were plated in each well, and 500 μL of medium B was added to each well. After the cells adhered, medium A was used for replacement to perform the induction with Doxycycline during the whole experiment.
4 Days after the induction with Doxycycline, HBV infection was performed, and the amount of HBV in each well was 100 MOI. Before infection, HBV was diluted in medium C to obtain HBV solution, and the infection volume was 250 μL per well. During infection, the cell supernatant was first removed by suction, the HBV solution was added to the cells, and the cells were incubated for 24 hours, then the supernatant was collected as the sample of Day 0. Then the cells were washed three times with PBS, and fresh medium C was used for replacement. After that, the supernatant was collected every two days for detection, fresh medium C was used for replacement. On the 6th day, fresh drug-containing medium A was used for replacement to start drug treatment, then the supernatant was collected every two days for detection, and fresh drug-containing medium A was used for replacement, until the 12th day, all the supernatant and cells were collected for relevant detection. The detection items included HBsAg, HBeAg, HBV DNA, HBV cccDNA, and for the detection method, please refer to Example 1.

C=C1[C@H](CO)[C@@H](O)C[C@@H]1n1cnc2c(=O)[nH]c(N)nc21 [ETV, Entecavir]
no significant difference: HBeAg | level of HBV DNA | level of HBV cccDNA
